For one series, the target named is iNOS (Mus musculus, UniProt P29477). Kind of series: NOS inhibition, hemoglobin capture assay. The series is classed as biochemical. The conditions noted are these: read-out: Ki iNOS; apparent Ki; recombinant enzyme; 10 µM L-arginine.
Another series has as its system blood pressure. The conditions noted are these: cited from earlier work.

Each structure is given as a SMILES string.

As for `N=C(NCCC[C@H](N)C(=O)O)N[N+](=O)[O-]` [L-NNA, L-N^ω-Nitroarginine], on iNOS, the Ki worked out at 4.55 µM. On to `COC(=O)[C@@H](N)CCCNC(=N)N[N+](=O)[O-]` [L-N^ω-nitroarginine methyl ester], for which the “effect on blood pressure” value in the series with blood pressure was “sharp increases in blood pressure”.
